Data taken from US20240174637A1, “DEGRADERS OF GRK2 AND USES THEREOF” (Sonata Therapeutics, Inc., priority 2021, published 2024).

Assays:
GRK2 [1] = target: T1, GRK2 (Homo sapiens, UniProt P25098); assay: GRK2 Degradation Assay and Western Blot in PAXF1657 cells; format: cell-based; design: endogenous in cells; host or cells: PAXF1657; settings: PAXF1657 EV, 24 hrs; for inhibition at 1 µM: read-out: % GRK2 degradation at 1 uM in PAXF1657 EV (24 hrs)
T1 sequence (P25098 1-689): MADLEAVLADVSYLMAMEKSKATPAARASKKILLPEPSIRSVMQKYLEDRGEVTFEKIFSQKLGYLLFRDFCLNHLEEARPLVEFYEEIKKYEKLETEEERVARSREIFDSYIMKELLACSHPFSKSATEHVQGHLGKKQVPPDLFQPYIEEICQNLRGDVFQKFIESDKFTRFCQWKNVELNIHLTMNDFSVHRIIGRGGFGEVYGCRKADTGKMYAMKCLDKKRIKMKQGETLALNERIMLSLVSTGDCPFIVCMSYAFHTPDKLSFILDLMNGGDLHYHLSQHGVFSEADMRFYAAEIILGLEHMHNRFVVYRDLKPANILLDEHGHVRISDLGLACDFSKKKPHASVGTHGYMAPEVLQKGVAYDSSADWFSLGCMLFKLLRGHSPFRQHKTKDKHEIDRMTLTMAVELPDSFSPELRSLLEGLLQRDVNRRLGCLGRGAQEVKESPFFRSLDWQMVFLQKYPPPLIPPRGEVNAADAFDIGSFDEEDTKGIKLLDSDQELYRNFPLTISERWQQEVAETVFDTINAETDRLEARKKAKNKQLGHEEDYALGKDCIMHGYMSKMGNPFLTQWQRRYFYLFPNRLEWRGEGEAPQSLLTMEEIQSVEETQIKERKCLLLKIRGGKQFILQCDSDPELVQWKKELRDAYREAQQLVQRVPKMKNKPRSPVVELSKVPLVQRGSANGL
Procedure, shortened: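 PAXF1657 cells grown to 70% confluency, then treated with compounds at 0–10 μM for 6 to 24 h at 37 °C. Lysates in PBS with 1% NP40 run on SDS-PAGE. GRK2 protein detected by western blot with β-actin as loading reference, using ECL chemiluminescence.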

GRK2 [2] = target: T1, GRK2; assay: ADPGlo GRK2 Inhibition Assay (Example 2); format: biochemical; settings: ADP-Glo, 10 μM ATP; read-out: ADP Glo Enzymatic GRK2 Assay: IC50 (nM) (Example 2)
Experimental: Assay: GRK2 (7.5 nM) was incubated with ATP (10 μM) and GRKtide (0.3 mg/mL) in 5 μL of assay buffer (see above) for 180 min at room temperature. HTS was performed using 1 μM compound. Compounds were dissolved in 100% DMSO, serially diluted tree-fold from 100 μM concentration to 46 nM and transferred (50 nL) into assay ready plate.
Materials: GRK2 was purchased from SignalChem (Cat #A14-10G, Lot #X645-3). Substrate GRKtide was from SignalChem (Cat #G46-58, Lot #R339-6). ADP-Glo Kinase Assay from Promega (Cat #V9102). Assay buffer consisted of 25 mM HEPES (pH7.5), 10 mM MgCl2, 0.01% Tween-20, 1 mM DDT. 384-well white plates were from Greiner […] (Item #784075).
HTS protocol: Take 384 well plate with 50 nL of compound in columns 3-22/DMSO solution 1-2,23-24. Add 2.5 μL assay buffer to columns 23 and 24 using Thermo Scientific Multidrop Combi Dispenser. Add 2.5 μL of 2× enzyme solution (15 nM in 1× assay buffer) using Thermo Scientific Multidrop Combi Reagent Dispenser to all columns except of 23 and 24. Incubate for 15 minutes. Fill plate with 2.5 μL of 2× substrate mix (20 μM ATP and 0.6 mg/mL GRKtide in 1× assay buffer) using Thermo Scientific Multidrop Combi Reagent Dispenser. Spin 15 seconds at 1000 rpm and incubate for 180 min at room temperature. Add 5 μL ADP-Glo reagent to all the wells. Spin 15 seconds at 1000 rpm and incubate for 40 min at room temperature. Add 10 μL Detection solution to all the wells. Incubate for 30 min at room temperature. Read plate in Luminescent mode on BMG PheraStar FSX (gain=3600).
Data Analysis: Data were analyzed in GraphPad Prism 8.0.2. Each HTS plate contains compounds in columns 3-22, controls (enzyme, no compound) in columns 1 and 2, and blanks (no enzyme) in columns 23 and 24. HTS percent inhibition was calculated for each compound from the signal in luminescence units and the mean of the plate controls and the mean of the plate blanks using the following equation: % Inhibition=100*(1−((signal−blank mean)/(control mean−blank mean))). At the final stage of data processing, we obtain dose-response curves, tables and SDF-files with the results of screening for each substance.

inhibition at 1 µM (GRK2 [1])	% GRK2 degradation at 10 uM in PAXF1657 EV (24 hrs) (GRK2 [1])	IC50 (GRK2 [2])	Compound
22%	39%	< 100 nM	Cc1ncsc1-c1ccc(CNC(=O)[C@@H]2C[C@@H](O)CN2C(=O)[C@@H](NC(=O)COCCOCCOCCOCCOCCOCCCCCCOc2cccc(CNC(=O)c3cccc(NCc4nnc(-c5ccncn5)n4C)c3)c2)C(C)(C)C)cc1 [Compound D100]
18%	10%	< 100 nM	Cc1ncsc1-c1ccc(CNC(=O)[C@@H]2C[C@@H](O)CN2C(=O)[C@@H](NC(=O)COCCOCCCCCCOc2cccc(CNC(=O)c3cccc(NCc4nnc(-c5ccncn5)n4C)c3)c2)C(C)(C)C)cc1 [Compound D101]
